Where two headings read alike, the source gives them in different places.
Key:
Oct1 = biological target: T1, Oct1 (Danio rerio, UniProt A0A8N1Z2B5); experiment: inhibition of ASP+ uptake in transfected cells, fluorescence; assay type: cell-based; conditions: 0.5 µM ASP+, mock cells subtracted
T1 construct: gene slc22a2; full-length transporter stably expressed in Flp-In-293 cells (Flp-In-293-drOct1)
T1 sequence (A0A8N1Z2B5 1-562): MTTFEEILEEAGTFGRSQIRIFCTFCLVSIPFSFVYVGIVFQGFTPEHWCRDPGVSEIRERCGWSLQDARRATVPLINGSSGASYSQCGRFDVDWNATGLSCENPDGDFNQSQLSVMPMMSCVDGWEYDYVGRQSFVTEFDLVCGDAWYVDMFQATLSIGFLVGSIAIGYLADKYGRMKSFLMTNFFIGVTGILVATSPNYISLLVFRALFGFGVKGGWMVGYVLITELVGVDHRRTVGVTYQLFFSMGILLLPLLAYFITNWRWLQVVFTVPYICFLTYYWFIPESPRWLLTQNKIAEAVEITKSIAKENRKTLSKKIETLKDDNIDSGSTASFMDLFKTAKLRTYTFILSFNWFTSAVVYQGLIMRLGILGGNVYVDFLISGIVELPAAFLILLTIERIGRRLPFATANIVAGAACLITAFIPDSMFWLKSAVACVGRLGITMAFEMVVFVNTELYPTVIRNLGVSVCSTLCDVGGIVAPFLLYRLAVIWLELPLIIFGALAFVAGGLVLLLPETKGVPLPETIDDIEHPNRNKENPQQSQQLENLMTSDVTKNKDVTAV

Oatp1d1 = biological target: T2, Oatp1d1 (Danio rerio, UniProt A0A8M9PU70); experiment: inhibition of Lucifer yellow uptake in transfected cells, fluorescence; assay type: cell-based
T2 construct: gene slco1d1; full-length transporter stably expressed in Flp-In-293 cells (Flp-In-293-drOatp1d1)
T2 sequence (A0A8M9PU70 1-689): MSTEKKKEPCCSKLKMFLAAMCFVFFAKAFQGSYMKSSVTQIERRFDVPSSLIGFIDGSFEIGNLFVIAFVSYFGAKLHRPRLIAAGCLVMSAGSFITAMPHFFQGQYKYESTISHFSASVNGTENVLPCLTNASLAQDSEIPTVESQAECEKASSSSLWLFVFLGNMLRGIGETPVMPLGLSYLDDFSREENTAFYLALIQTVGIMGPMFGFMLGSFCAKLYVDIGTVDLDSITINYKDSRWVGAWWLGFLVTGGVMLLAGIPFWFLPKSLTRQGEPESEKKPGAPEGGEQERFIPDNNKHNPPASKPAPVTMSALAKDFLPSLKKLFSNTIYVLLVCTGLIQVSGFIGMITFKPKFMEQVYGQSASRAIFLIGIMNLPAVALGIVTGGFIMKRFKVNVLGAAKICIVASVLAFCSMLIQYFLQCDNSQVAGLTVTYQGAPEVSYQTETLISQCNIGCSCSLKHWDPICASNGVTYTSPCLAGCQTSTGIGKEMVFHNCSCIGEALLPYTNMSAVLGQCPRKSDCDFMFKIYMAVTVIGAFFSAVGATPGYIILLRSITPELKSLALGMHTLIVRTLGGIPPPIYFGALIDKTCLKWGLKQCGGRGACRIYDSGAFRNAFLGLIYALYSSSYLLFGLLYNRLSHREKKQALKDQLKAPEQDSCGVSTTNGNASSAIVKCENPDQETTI

[1] = 50 µM Lucifer yellow, mock cells subtracted

IC50 (Oct1; read-out: IC50 (converted)) | SMILES | IC50 (Oct1) | IC50 (Oatp1d1; [1]) | IC50 (Oatp1d1; read-out: IC50 (converted))
– | O=[N+]([O-])c1ccc(O)c(O)c1 [4NC] | particularly 3M5NC, 3M4NC, and 4NC, exhibited the strongest interactions with Oct1 | all compounds except 4NP showed interaction with LY uptake | –
– | O=[N+]([O-])c1ccc(O)cc1 [4NP] | – | – | > 719 µM
– | Cc1c([N+](=O)[O-])ccc(O)c1O [3M4NC] | particularly 3M5NC, 3M4NC, and 4NC, exhibited the strongest interactions with Oct1 | all compounds except 4NP showed interaction with LY uptake | –
– | Cc1cc([N+](=O)[O-])cc(O)c1O [3M5NC] | particularly 3M5NC, 3M4NC, and 4NC, exhibited the strongest interactions with Oct1 | all compounds except 4NP showed interaction with LY uptake | –
529 µM | O=C(O)c1cc([N+](=O)[O-])ccc1O [5NSA] | – | – | 14.2 µM
496 µM | O=C(O)c1cccc([N+](=O)[O-])c1O [3NSA] | – | all compounds except 4NP showed interaction with LY uptake | –
– | COc1cc([N+](=O)[O-])cc(OC)c1O [4NS] | All tested NMAHs interfered with ASP+ uptake via Oct1 | all compounds except 4NP showed interaction with LY uptake | –

— article PMC12737277, “Ecotoxicity of Nitrated Monoaromatic Hydrocarbons in Aquatic Systems: Emerging Risks from Atmospheric Deposition of Biomass Burning and Anthropogenic Aerosols” (Toxics, 2025)
